Where no end group is shown, it is not given here.

The record followed here is US8048918B2, “Treatment of hyperproliferative diseases” (Vampex Limited, priority 2000, dated 2011).

In assay [1] the test system is normal human epidermal keratinocytes. In words: differentiation assay (K1/K10) on normal human epidermal keratinocytes. Type of assay: cell-based. To be noted: for differentiation: Carbenoxolone 6 μM, Disulfiram 15 μM or Citral 10 μM, 1.2 mM calcium, FIG. 11. On the procedure:
(§1) Primary cultures were seeded at 3500 cells/cm^2 in K-SFM 25 cm^2 tissue culture flasks. The medium was changed (5 ml per flask) the day after seeding and every other day thereafter. At 70-80% confluence the cells were subcultured by seeding 3500 cells/cm^2 in new 25 cm^2 flasks. On the day that the subcultures reached confluence the medium was switched to medium containing the experimental treatments.
(§2) The cells were cultured for 4 days, replacing the experimental medium every other day, before harvesting the cells.
RNA extraction is carried out according to the manufacturers instructions using the RNeasy kit (QIAGEN). 20 μg of RNA for each treatment was separated on a 1.2% agarose (1.8% formaldehyde) gel and transferred onto a nylon membrane (Zeta probe GT membranes, BioRad) by capillary transfer. The RNA is fixed to the membrane by UV crosslinking. DNA probes for the differentiation markers K1 and K10(50 ng) are labelled with [α-^32P] dCTP using the Prime-It RmT Primer labeling kit (Stratagene) following the manufacturer's instructions. Unincorporated nucleotides are removed by elution through a Microspin G25 column (Pharmacia Biotech). The blots are wetted in 0.25M sodium phosphate (pH 7.2)/7% SDS for 30 minutes at 65° C. Fresh hybridisation solution is added along with the radiolabelled probe and the blot is hybridised overnight at 65° C.
The blot is washed for 2×5 minutes in 0.25M sodium phosphate (pH 7.2), 7% SDS and then for 2×5 minutes in 20 mM sodium phosphate (pH 7.2), 5% SDS at 65° C. The wash steps are repeated until a clear distinction can be made between the signal and non-specific background. The blot is exposed to x-ray film for 24 hours before developing.
Synthesis of mRNA for the K1 and K10 keratin (markers for commitment to terminal differentiation) is examined by quantitative reverse transcription PCR (RT-PCR). Synthesis of mRNA for Cyclin D (a marker for cell proliferation) is also assayed by RT-PCR. […] The RNA is blotted onto a nylon membrane by capillary transfer and expression of K1 mRNA is determined by Northern hybridisation with a radiolabelled DNA probe. […]

Assay [2] shares this test system. In words: proliferation assay on normal human epidermal keratinocytes. Format: cell-based. How it is done: Pieces of skin are washed thoroughly for 30 minutes in Betadine solution (10% iodine) followed by 2×10 minute washes in PBS. After removal of the subcutaneous tissue and dermis with a scalpel the skin is dissected into 5×10 mm pieces. The skin pieces are rinsed 5× in PBS followed by incubating in Dispase (grade 11, 2.4 U/ml, Boehringer Mannheim) for 18 hours at4° C.
The skin pieces are then placed dermis side down in 100 mm Petri dishes and are irrigated with 5 ml KSFM. The epidermis is peeled off with forceps and incubated in 10 ml 1× Trypsin/EDTA solution for 10 minutes at 37° C. followed by addition of 10 ml KSFM. The sample is mechanically agitated by aspiration and ejection from a transfer pipette. The resulting cell suspension is sieved using a cell strainer (Becton Dickinson) rinsing through with KSFM. The isolated epidermal cells are then washed twice in KSFM by centrifugation at 100 g for 10 min. Cells are seeded as below.
as §1, §2
Cell Seeding and Analysis: Purchased secondary cultures or primary cultures (from donor skin) are seeded at 3500 cells/cm^2 in K-SFM 25 cm^2 tissue culture flasks. The medium is changed (5 ml per flask) the day after seeding and every other day thereafter. […]
The medium is replaced every other day. […] The cell suspension is added to 20 ml Isoton solution in a Coulter counter “Accuvette” and the cells are counted. On each harvest, 3 wells of cells are counted for each treatment and 3 counts were made for each well.
Cell number is calculated as follows: Coulter Counter removes 500 μl of 20 ml sample ( 1/40). […]

Where [3] appears, read: Carbenoxolone 6 μM, Disulfiram 15 μM or Citral 10 μM.

Consider `CC1(C)[C@@H](OC(=O)CCC(=O)O)CC[C@]2(C)[C@H]3C(=O)C=C4[C@@H]5C[C@@](C)(C(=O)O)CC[C@]5(C)CC[C@@]4(C)[C@]3(C)CC[C@@H]12` [Carbenoxolone], for which the differentiation entry in assay [1] is reported as “increase differentiation”. In assay [2] (setting [3]), the proliferation result was “inhibit proliferation”.
On to `CC(C)=CCCC(C)=CC=O` [Citral, 3,7-dimethyl-2,6-octadienal], for which the differentiation result in assay [1] is “increase differentiation”. Moreover, in assay [2] (setting [3]), the proliferation result is “inhibit proliferation”.
Regarding GRVRLLNNWDVCA, the “differentiation (expression of K1 and K10 markers)” value in assay [1] (peptide 6 μM, RBP 0.6 μM, Ca 1.2 mM, FIG. 6) was “enhances the expression of K1 and K10 markers”. Also, the proliferation result in assay [2] (peptide 6 μM, RBP 0.6 μM, Ca 1.2 mM) was “reduces proliferation”.
